Measurements: patent publication US4060603A, “Histidine derivatives” (Reckitt & Colman Products Limited, priority 1975, dated 1977)

Test system: reserpine induced hypothermia
Experiment: reversal of reserpine induced hypothermia test in mice
Assay type: in vivo

Q: `C[C@H]1CCN(C(=O)[C@H](Cc2c[nH]cn2)NC(=O)[C@@H]2CCC(=O)N2)[C@@H]1C(N)=O` [Example 1, L-Pyroglutamyl-L-histidyl-trans-3-methyl-L-prolineamide] was tested. Which “calorigenic effect in reversal of reserpine induced hypothermia” value (fully reserpinised mice, over 4 hours, P < 0.05, Mann Whitney U test) did it give?
A: Its value is “significant”.

Q: And the “potency relative to TRH (times more potent)” value (mice, doses 1-30 mg/Kg p.o.)?
A: Its value is 3-4 time.
